Laboratory results published in patent US9944602B2, “Piperidinone herbicides” (E. I. DU PONT DE NEMOURS AND COMPANY, priority 2014, dated 2018).

Key:
[1] = system: barnyardgrass (Echinochloa crus-galli); assay: Test A preemergence barnyardgrass; assay type: in vivo; details: Echinochloa crus-galli, pre-emergence, 240 h, 0 to 100 scale, 0 no effect, 100 complete control, read-out: Barnyardgrass plant response rating; for pest or weed control at 125 g/ha: 125 g ai/ha; for pest or weed control at 500 g/ha: 500 g ai/ha
Procedure, shortened: (§1)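 Seeds sown in loam–sand blend received a directed preemergence soil spray; postemergence plants (2–10 cm, one- to two-leaf stage) were sprayed in the same soil. Chemicals were formulated in non-phytotoxic solvent with surfactant. After ~10 d in greenhouse, injury was rated visually against untreated controls, 0 (no effect) to 100 (complete control).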

[2] = system: kochia (Kochia scoparia); assay: Test A preemergence kochia; assay type: in vivo; details: Bassia scoparia, pre-emergence, 240 h, 0 to 100 scale, 0 no effect, 100 complete control, read-out: Kochia plant response rating; for pest or weed control at 125 g/ha: 125 g ai/ha; for pest or weed control at 500 g/ha: 500 g ai/ha
Procedure, shortened: as §1

[3] = system: ragweed (common ragweed, Ambrosia elatior); assay: Test A preemergence ragweed; assay type: in vivo; details: Ambrosia artemisiifolia, pre-emergence, 240 h, 0 to 100 scale, 0 no effect, 100 complete control, read-out: Ragweed plant response rating; for pest or weed control at 125 g/ha: 125 g ai/ha; for pest or weed control at 500 g/ha: 500 g ai/ha
Procedure, shortened: as §1

[4] = system: ryegrass, Italian (Italian ryegrass, Lolium multiflorum); assay: Test A preemergence ryegrass, Italian; assay type: in vivo; details: Lolium multiflorum, pre-emergence, 240 h, 0 to 100 scale, 0 no effect, 100 complete control, read-out: Ryegrass, Italian plant response rating; for pest or weed control at 125 g/ha: 125 g ai/ha; for pest or weed control at 500 g/ha: 500 g ai/ha
Procedure, shortened: as §1

[5] = system: foxtail, giant (giant foxtail, Setaria faberii); assay: Test A preemergence foxtail, giant; assay type: in vivo; details: Setaria faberi, pre-emergence, 240 h, 0 to 100 scale, 0 no effect, 100 complete control, read-out: Foxtail, Giant plant response rating; for pest or weed control at 125 g/ha: 125 g ai/ha; for pest or weed control at 500 g/ha: 500 g ai/ha
Procedure, shortened: as §1

[6] = system: pigweed (Amaranthus retroflexus); assay: Test A preemergence pigweed; assay type: in vivo; details: Amaranthus retroflexus, pre-emergence, 240 h, 0 to 100 scale, 0 no effect, 100 complete control, read-out: Pigweed plant response rating; for pest or weed control at 125 g/ha: 125 g ai/ha; for pest or weed control at 500 g/ha: 500 g ai/ha
Procedure, shortened: as §1

[7] = system: barnyardgrass (Echinochloa crus-galli); assay: Test A postemergence barnyardgrass; assay type: in vivo; details: Echinochloa crus-galli, post-emergence, 240 h, 0 to 100 scale, 0 is no effect, 100 is complete control, read-out: Plant response rating, Barnyardgrass; for pest or weed control at 125 g/ha: 125 g ai/ha; for pest or weed control at 500 g/ha: 500 g ai/ha
Procedure, shortened: as §1

[8] = system: kochia (Kochia scoparia); assay: Test A postemergence kochia; assay type: in vivo; details: Bassia scoparia, post-emergence, 240 h, 0 to 100 scale, 0 is no effect, 100 is complete control, read-out: Plant response rating, Kochia; for pest or weed control at 125 g/ha: 125 g ai/ha; for pest or weed control at 500 g/ha: 500 g ai/ha
Procedure, shortened: as §1

[9] = system: ragweed (common ragweed, Ambrosia elatior); assay: Test A postemergence ragweed; assay type: in vivo; details: Ambrosia artemisiifolia, post-emergence, 240 h, 0 to 100 scale, 0 is no effect, 100 is complete control, read-out: Plant response rating, Ragweed; for pest or weed control at 125 g/ha: 125 g ai/ha; for pest or weed control at 500 g/ha: 500 g ai/ha
Procedure, shortened: as §1

[10] = system: ryegrass, Italian (Italian ryegrass, Lolium multiflorum); assay: Test A postemergence ryegrass, Italian; assay type: in vivo; details: Lolium multiflorum, post-emergence, 240 h, 0 to 100 scale, 0 is no effect, 100 is complete control, read-out: Plant response rating, Ryegrass, Italian; for pest or weed control at 125 g/ha: 125 g ai/ha; for pest or weed control at 500 g/ha: 500 g ai/ha
Procedure, shortened: as §1

[11] = system: foxtail, giant (giant foxtail, Setaria faberii); assay: Test A postemergence foxtail, giant; assay type: in vivo; details: Setaria faberi, post-emergence, 240 h, 0 to 100 scale, 0 is no effect, 100 is complete control, read-out: Plant response rating, Foxtail, Giant; for pest or weed control at 125 g/ha: 125 g ai/ha; for pest or weed control at 500 g/ha: 500 g ai/ha
Procedure, shortened: as §1

[12] = system: pigweed (Amaranthus retroflexus); assay: Test A postemergence pigweed; assay type: in vivo; details: Amaranthus retroflexus, post-emergence, 240 h, 0 to 100 scale, 0 is no effect, 100 is complete control, read-out: Plant response rating, Pigweed; for pest or weed control at 125 g/ha: 125 g ai/ha; for pest or weed control at 500 g/ha: 500 g ai/ha
Procedure, shortened: as §1

[13] = system: wheat (Triticum aestivum); assay: Test A postemergence wheat; assay type: in vivo; details: Triticum aestivum, post-emergence, 240 h, 0 to 100 scale, 0 is no effect, 100 is complete control, read-out: Plant response rating, Wheat; for plant injury at 125 g/ha: 125 g ai/ha; for plant injury at 500 g/ha: 500 g ai/ha
Procedure, shortened: as §1

[14] = system: corn (Zea mays); assay: Test A postemergence corn; assay type: in vivo; details: Zea mays, post-emergence, 240 h, 0 to 100 scale, 0 is no effect, 100 is complete control; for Corn plant response rating (crop injury, 0 = no effect, 100 = complete kill) at 125 g/ha: 125 g ai/ha; for Corn plant response rating (crop injury, 0 = no effect, 100 = complete kill) at 500 g/ha: 500 g ai/ha
Procedure, shortened: as §1

[15] = system: blackgrass (Alopecurus myosuroides); assay: Test A postemergence blackgrass; assay type: in vivo; details: Alopecurus myosuroides, post-emergence, 240 h, 0 to 100 scale, 0 is no effect, 100 is complete control, read-out: Plant response rating, Blackgrass; for pest or weed control at 125 g/ha: 125 g ai/ha; for pest or weed control at 500 g/ha: 500 g ai/ha
Procedure, shortened: as §1

[16] = system: galium (catchweed bedstraw, Galium aparine); assay: Test A postemergence galium; assay type: in vivo; details: Galium, post-emergence, 240 h, 0 to 100 scale, 0 is no effect, 100 is complete control, read-out: Plant response rating, Galium; for pest or weed control at 125 g/ha: 125 g ai/ha; for pest or weed control at 500 g/ha: 500 g ai/ha
Procedure, shortened: as §1

[17] = system: rice (Oryza sativa); assay: Test B flooded paddy test rice; assay type: in vivo; details: Oryza sativa, Table B, Flood, 250 g ai/ha, scale 0 to 100, read-out: Plant response rating
Procedure, shortened: (§2)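 Plants grown to the 2-leaf stage; pots flooded to 3 cm above soil at treatment, compound applied directly into paddy water, depth held throughout. Greenhouse 13 to 15 d, then visual evaluation against untreated controls.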

[18] = system: sedge, umbrella (small-flower umbrella sedge, Cyperus difformis); assay: Test B flooded paddy test sedge, umbrella; assay type: in vivo; details: Cyperus difformis, Table B, Flood, 250 g ai/ha, scale 0 to 100, read-out: Plant response rating
Procedure, shortened: as §2

[19] = system: ducksalad (Heteranthera limosa); assay: Test B flooded paddy test ducksalad; assay type: in vivo; details: Heteranthera limosa, Table B, Flood, 250 g ai/ha, scale 0 to 100, read-out: Plant response rating
Procedure, shortened: as §2

[20] = system: barnyardgrass (Echinochloa crus-galli); assay: Test B flooded paddy test barnyardgrass; assay type: in vivo; details: Echinochloa crus-galli, Table B, Flood, 250 g ai/ha, scale 0 to 100, read-out: Plant response rating
Procedure, shortened: as §2

SMILES	pest or weed control at 125 g/ha [1]	pest or weed control at 500 g/ha [1]	pest or weed control at 125 g/ha [2]	pest or weed control at 500 g/ha [2]	pest or weed control at 125 g/ha [3]	pest or weed control at 500 g/ha [3]	pest or weed control at 125 g/ha [4]	pest or weed control at 500 g/ha [4]	pest or weed control at 125 g/ha [5]	pest or weed control at 500 g/ha [5]	pest or weed control at 125 g/ha [6]	pest or weed control at 500 g/ha [6]	pest or weed control at 125 g/ha [7]	pest or weed control at 500 g/ha [7]	pest or weed control at 125 g/ha [8]	pest or weed control at 500 g/ha [8]	pest or weed control at 125 g/ha [9]	pest or weed control at 500 g/ha [9]	pest or weed control at 125 g/ha [10]	pest or weed control at 500 g/ha [10]	further results
O=C1NCCC(c2cccc(Cl)c2)C1C(=O)Nc1cccc(F)c1F (centres unmarked) [Compound 36, 4-(3-chlorophenyl)-N-(2,3-difluorophenyl)-2-oxo-3-piperidinecarboxamide]	90%	90%	0%	0%	0%	0%	0%	30%	90%	90%	0%	0%	80%	90%	0%	0%	0%	0%	0%	20%	pest or weed control at 125 g/ha [11]: 90%; pest or weed control at 500 g/ha [11]: 90%; pest or weed control at 125 g/ha [12]: 0%; pest or weed control at 500 g/ha [12]: 0%; plant injury at 125 g/ha [13]: 0%; plant injury at 500 g/ha [13]: 0%; Corn plant response rating (crop injury, 0 = no effect, 100 = complete kill) at 125 g/ha [14]: 0%; Corn plant response rating (crop injury, 0 = no effect, 100 = complete kill) at 500 g/ha [14]: 0%; pest or weed control at 125 g/ha [15]: 0%; pest or weed control at 500 g/ha [15]: 60%; pest or weed control at 125 g/ha [16]: 0%; pest or weed control at 500 g/ha [16]: 30%; plant injury at 250 g/ha [17]: 0%; pest or weed control at 250 g/ha [18]: 0%; pest or weed control at 250 g/ha [19]: 90%; pest or weed control at 250 g/ha [20]: 60%; melting point: 100 to 102 °C
O=C1NCCC(c2cccc(C(F)F)c2)C1C(=O)Nc1cccc(F)c1F (centres unmarked) [Compound 49, 4-[3-(difluoromethyl)phenyl]-N-(2,3-difluorophenyl)-2-oxo-3-piperidinecarboxamide]	80%	90%	0%	0%	0%	0%	0%	60%	90%	90%	0%	0%	80%	90%	0%	0%	0%	0%	0%	0%	pest or weed control at 125 g/ha [11]: 80%; pest or weed control at 500 g/ha [11]: 80%; pest or weed control at 125 g/ha [12]: 0%; pest or weed control at 500 g/ha [12]: 0%; plant injury at 125 g/ha [13]: 0%; plant injury at 500 g/ha [13]: 30%; Corn plant response rating (crop injury, 0 = no effect, 100 = complete kill) at 125 g/ha [14]: 0%; Corn plant response rating (crop injury, 0 = no effect, 100 = complete kill) at 500 g/ha [14]: 50%; pest or weed control at 125 g/ha [15]: 0%; pest or weed control at 500 g/ha [15]: 50%; pest or weed control at 125 g/ha [16]: 0%; pest or weed control at 500 g/ha [16]: 0%; plant injury at 250 g/ha [17]: 0%; pest or weed control at 250 g/ha [18]: 0%; pest or weed control at 250 g/ha [19]: 100%; pest or weed control at 250 g/ha [20]: 70%; melting point: 134 to 137 °C
